{
  "source": "patent US9029414B2",
  "about": "“Triterpenoid compounds and methods of use thereof” (Biotechnology Research Corporation, priority 2008, dated 2015)",
  "key": {"EP3 receptor": {"target": "EP3 receptor (Homo sapiens, UniProt P43115)", "sequence (P43115 whole entry)": "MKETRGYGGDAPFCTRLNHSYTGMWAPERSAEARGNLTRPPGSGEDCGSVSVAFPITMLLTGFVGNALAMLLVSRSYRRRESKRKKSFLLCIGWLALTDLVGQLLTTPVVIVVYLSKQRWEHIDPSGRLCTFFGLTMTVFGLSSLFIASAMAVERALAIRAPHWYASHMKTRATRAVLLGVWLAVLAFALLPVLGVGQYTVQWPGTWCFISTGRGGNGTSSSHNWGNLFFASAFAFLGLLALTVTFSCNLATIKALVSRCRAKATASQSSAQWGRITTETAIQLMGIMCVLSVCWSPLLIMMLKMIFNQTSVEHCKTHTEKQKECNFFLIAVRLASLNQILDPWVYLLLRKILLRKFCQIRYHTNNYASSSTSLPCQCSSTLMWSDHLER", "experiment": "Radioligand competition binding assay, EP3", "conditions": "EP3, target PGE2; compound at 10 μM in duplicate; read-out: % inhibition of control specific binding", "method": "To determine the targets of DA compounds, the compound was assessed in binding assays for the family of prostanoid receptors. Both compounds were tested at a single concentration (10 μM) in duplicate. DA001 and DA021 inhibit the ligand binding of prostaglandin E2 receptors EP1, EP2 and EP4 and moderately to prostaglandin (PGF) to its receptor (FP), but not prostaglandin I (PGI2), thromoboxane A and prostaglandin D2 to their receptors."}, "hippocampal neurons": {"test_system": "hippocampal neurons", "experiment": "Hippocampal neuron survival assay against NMDA excitotoxicity (LDH)", "assay_type": "cell-based, Sprague-Dawley rats", "conditions": "30 μM 24 hrs, NMDA 10-200 μM 20 min", "method": "Hippocampal neurons/cortical neurons were prepared from embryonic day 18 Sprague-Dawley rats. After the cortices had been removed from the brain, isolated cells were plated onto Poly d-Lysine (PDL) (P0899, Sigma)-coated 48 well plates (150687, NUNC) at a density of 2×10^5 cell per well using Neurobasal Medium (NB) (21103-049, Gibco) with B27 supplement (17504-044, Gibco), penicillin/streptomycin (15140, Gibco) and 1 mM L-glutamine (25030, Gibco). The cell culture was incubated at 37° C. in a humidified atmosphere of 5% CO2 in air. Medium was changed to growth medium (Neurobasal Medium with penicillin/streptomycin and B27 supplement) after 3 hours. Half medium was changed with growth medium every 2-3 days to maintain the cells until day 10 in vitro (DIV 10). Serial dilutions of samples were prepared in growth medium and DMSO was used as vehicle control. For pre-treating assay, half of the medium was removed from wells, and equal amount of diluted samples were replaced. Cells were then incubated for 2 hours at 37° C. in a humidified atmosphere of 5% CO2 in air. […] Afterwards, cells were incubated in growth medium for 18-24 hours and detected with Cytotoxicity Detection Kit (1644793, Roche).\nHippocampal neurons were treated with DA021 and subsequently subjected to varying concentrations of NMDA. […] LDH release into the medium was then measured."}, "[1]": {"test_system": "C/EBP-b and c-fos expression in cortical neurons", "experiment": "C/EBP-b and c-fos mRNA (real-time PCR) in cortical neurons", "assay_type": "cell-based", "conditions": "vs DMSO", "method": "FIG. 4. DA001 induces CEBPb mRNA in cortical neurons. Cortical neurons were incubated with DA001 or the DMSO control for 3 different time intervals. Gene expression was normalized against the house-keeping gene, hypoxanthine phosphoribosyltransferase 1 (HPRT1) and glyceraldehyde 3-phosphate dehydrogenase (GAPDH) and compared to the control (DMSO) treatment. Relative change in gene expression induced by DA001 was compared with DMSO. Asterisk represents P<0.05.\nCortical neurons of 11 DIV-12 DIV were pre-incubated with DA001 or DMSO for 24 hours. Cells were washed in Locke's medium without magnesium for 15 min, followed by the treatment of NMDA (20 μM) or water for 20 min. Neurons were incubated with normal growth medium and total RNA were extracted at different time intervals after or without NMDA treatment. Total RNA was extracted using RNeasy Mini kit (Qiagen) according to the manufacturer's protocol, and was reverse-transcribed into single-stranded cDNA with SuperScript II Reverse Transcriptase (Invitrogen) and oligo-dT primers. Real-time Quantitative PCR was performed using Power SYBR Green PCR Master Mix (Applied Biosystems) on the Mx3000P Real-Time PCR System (Stratagene). […]\nCortical neurons were treated with DA001 at different time intervals. The expression of CCAAT/enhancer binding protein beta (C/EBP-b) and c-fos was measured at three different time intervals by real-time PCR. […]"}, "MC2 receptor": {"target": "T1, MC2 receptor (Homo sapiens, UniProt Q01718)", "T1 construct": "expressed in transfected cells", "T1 sequence (Q01718 whole entry)": "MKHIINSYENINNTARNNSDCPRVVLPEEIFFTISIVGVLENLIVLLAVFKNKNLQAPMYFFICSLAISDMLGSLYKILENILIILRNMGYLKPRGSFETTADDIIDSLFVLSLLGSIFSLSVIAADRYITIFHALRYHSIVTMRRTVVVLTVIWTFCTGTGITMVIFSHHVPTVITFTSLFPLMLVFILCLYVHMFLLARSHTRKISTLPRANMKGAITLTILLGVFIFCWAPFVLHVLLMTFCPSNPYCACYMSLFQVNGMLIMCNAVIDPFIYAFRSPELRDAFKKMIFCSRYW", "T1 sequence (Q8TCY5 whole entry partner)": "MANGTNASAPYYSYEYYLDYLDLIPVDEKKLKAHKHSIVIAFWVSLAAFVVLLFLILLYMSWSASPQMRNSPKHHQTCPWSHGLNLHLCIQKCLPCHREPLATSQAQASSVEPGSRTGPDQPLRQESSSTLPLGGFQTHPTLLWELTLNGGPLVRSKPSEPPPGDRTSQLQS", "experiment": "Cellular receptor functional assay (cAMP), MC2", "assay_type": "cell-based", "method": "(§1) DA001 inhibits ligand binding to MC1 and MC4 receptors. To determine whether the inhibitory effect is due to agonist or antagonist activity, DA001 was evaluated at 6 or 8 concentrations in cellular assays assessing receptor function. Upon ligand binding, the MC1 or MC4 receptor is activated which leads to an increase in intracellular cyclic AMP. […] DA001 alone is unable to induce cAMP increase (blue square dots). […] DA001 was further evaluated with MC2 receptor functional assay. Upon ligand binding, the MC2 receptor is activated which leads to an increase in intracellular cyclic AMP."}, "[2]": {"target": "serotonin (5-HT1D subtype) receptor (Homo sapiens, UniProt P28221)", "sequence (P28221 whole entry)": "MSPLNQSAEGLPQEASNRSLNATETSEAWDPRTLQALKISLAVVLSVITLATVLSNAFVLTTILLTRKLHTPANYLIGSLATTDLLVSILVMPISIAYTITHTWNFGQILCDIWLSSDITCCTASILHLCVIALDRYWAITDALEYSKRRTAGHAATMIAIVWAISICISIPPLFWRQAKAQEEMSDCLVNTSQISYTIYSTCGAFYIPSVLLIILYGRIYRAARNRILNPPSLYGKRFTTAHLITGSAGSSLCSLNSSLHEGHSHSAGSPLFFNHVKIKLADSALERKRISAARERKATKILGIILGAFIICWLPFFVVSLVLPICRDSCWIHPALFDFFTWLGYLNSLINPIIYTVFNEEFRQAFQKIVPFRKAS", "experiment": "Radioligand competition binding assay, 5-HT1D", "conditions": "10 μM in duplicate, read-out: % inhibition of control specific binding", "method": "DA001 was evaluated against 109 receptor binding assays and 17 enzyme assays, comprising of selective, central and peripheral therapeutically-relevant targets. Radioligand competition assays were conducted whereby DA001 was tested at one concentration (10 μM) in duplicate. […] It could compete with the radioligand [^125I-NDP-alpha-melanocyte-stimulating hormone (α-MSH)] binding for MC1 and MC4 but not MC3 and MC5 nor the related family, the melanin concentrating hormone receptors (MCH1 and MCH2)."}, "human MC4 receptor": {"target": "human MC4 receptor (Homo sapiens, UniProt P32245)", "sequence (P32245 whole entry)": "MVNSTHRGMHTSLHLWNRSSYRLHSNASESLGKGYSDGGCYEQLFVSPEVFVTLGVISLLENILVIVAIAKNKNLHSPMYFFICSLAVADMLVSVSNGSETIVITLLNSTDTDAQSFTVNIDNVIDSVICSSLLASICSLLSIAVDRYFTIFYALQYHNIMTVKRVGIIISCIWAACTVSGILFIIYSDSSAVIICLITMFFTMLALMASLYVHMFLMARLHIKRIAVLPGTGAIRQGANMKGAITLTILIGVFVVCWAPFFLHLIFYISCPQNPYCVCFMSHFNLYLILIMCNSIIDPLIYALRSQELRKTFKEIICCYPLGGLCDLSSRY", "experiment": "Cellular receptor functional assay (cAMP), MC4", "assay_type": "cell-based", "conditions": "cells over-expressing MC4", "method": "FIG. 1. […] DA001 alone is unable to induce cAMP increase (blue square dots).\nas §1"}},
  "data": [
    {"smiles": "C=C(C)[C@@H]1CC[C@]2(/C=N/O)CC[C@]3(C)C(CCC4[C@@]5(C)CCC(=O)[C@@](C)(CO)[C@@H]5CC[C@]43C)C12", "note": "(stereo partly drawn) [DA021]", "values": [
      {"measurement": "inhibition at 10 µM", "setting": "EP3 receptor", "value": -3, "unit": "%"},
      {"measurement": "protection from NMDA-induced excitotoxicity (LDH release)", "setting": "hippocampal neurons", "value": "protects neurons against differing concentrations of NDMA"}
    ]},
    {"smiles": "C=C(C)[C@@H]1CC[C@]2(C(=O)O)CC[C@]3(C)C(CC[C@@H]4[C@@]5(C)CC[C@H](O[C@@H]6OC[C@H](O)[C@H](O)[C@H]6O[C@@H]6O[C@@H](C)[C@H](O)[C@@H](O)[C@H]6O)[C@@](C)(CO)[C@@H]5CC[C@]43C)[C@@H]12", "note": "(stereo partly drawn) [DA001, 3-O-[α-L-rhamnopyranosyl-(1→2)-α-L-arabinopyranosyl]-3,23-dihydroxy-20(29)-lupen-28-oic acid]", "values": [
      {"measurement": "C/EBP-b expression (mRNA)", "setting": "[1]; after a 2-day treatment", "value": "induced C/EBP-b expression"},
      {"measurement": "c-fos expression (mRNA)", "setting": "[1]; similar conditions", "value": "did not affect expression of c-fos"},
      {"measurement": "Agonist effect, cAMP measurement", "setting": "MC2 receptor; absence of ligand ACTH1-39, cells over-expressing MC2", "value": 0},
      {"measurement": "Antagonist effect, cAMP measurement", "setting": "MC2 receptor; presence of ligand ACTH1-39, cells over-expressing MC2", "value": "−8"},
      {"measurement": "inhibition at 10 µM", "setting": "[2]", "value": 30, "unit": "%"},
      {"measurement": "agonist effect (cAMP increase by compound alone)", "setting": "human MC4 receptor; compound alone", "value": "did not induce an increase in cAMP"},
      {"measurement": "IC50", "setting": "human MC4 receptor; inhibition of cAMP increase by NDP-α-MSH, read-out: IC50, antagonist effect", "value": 17, "unit": "µM"}
    ]}
  ]
}
